Results: PubChem BioAssay (NCI)
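Cells were grown in 96-well plates and exposed to each compound for 48 hours at five concentrations; endpoints were interpolated linearly between bracketing concentrations, or set to the highest concentration if not reached. The concentration for full growth arrest is given as TGI.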

How the values were obtained:
Experiment in all cases: NCI-60 cell line screen, 48 h
786-0 renal = tested on: 786-0 renal
A498 renal = tested on: A498 renal
A549 NSCLC = tested on: A549 NSCLC
ACHN renal = tested on: ACHN renal
CAKI-1 renal = tested on: CAKI-1 renal
CCRF-CEM leukemia = tested on: CCRF-CEM leukemia
COLO 205 colon = tested on: COLO 205 colon
DLD-1 colon = tested on: DLD-1 colon
DMS 114 small cell lung = tested on: DMS 114 small cell lung
DMS 273 small cell lung = tested on: DMS 273 small cell lung
EKVX NSCLC = tested on: EKVX NSCLC
HCC-2998 colon = tested on: HCC-2998 colon
HCT-116 colon = tested on: HCT-116 colon
HCT-15 colon = tested on: HCT-15 colon
HL-60(TB) leukemia = tested on: HL-60(TB) leukemia
HOP-62 NSCLC = tested on: HOP-62 NSCLC
HOP-92 NSCLC = tested on: HOP-92 NSCLC
HT29 colon = tested on: HT29 colon
IGROV1 ovarian = tested on: IGROV1 ovarian
K-562 leukemia = tested on: K-562 leukemia
KM12 colon = tested on: KM12 colon
KM20L2 colon = tested on: KM20L2 colon
LOX IMVI melanoma = tested on: LOX IMVI melanoma
LXFL 529 NSCLC = tested on: LXFL 529 NSCLC
M14 melanoma = tested on: M14 melanoma
M19-MEL melanoma = tested on: M19-MEL melanoma
MALME-3M melanoma = tested on: MALME-3M melanoma
MOLT-4 leukemia = tested on: MOLT-4 leukemia
NCI-H226 lung = tested on: NCI-H226 lung
NCI-H23 lung = tested on: NCI-H23 lung
NCI-H460 lung = tested on: NCI-H460 lung
NCI-H522 lung = tested on: NCI-H522 lung
OVCAR-3 ovarian = tested on: OVCAR-3 ovarian
OVCAR-4 ovarian = tested on: OVCAR-4 ovarian
OVCAR-5 ovarian = tested on: OVCAR-5 ovarian
OVCAR-8 ovarian = tested on: OVCAR-8 ovarian
RPMI-8226 leukemia = tested on: RPMI-8226 leukemia
RXF 393 renal = tested on: RXF 393 renal
RXF-631 renal = tested on: RXF-631 renal
SF-268 CNS = tested on: SF-268 CNS
SF-295 CNS = tested on: SF-295 CNS
SF-539 CNS = tested on: SF-539 CNS
SK-MEL-2 melanoma = tested on: SK-MEL-2 melanoma
SK-MEL-28 melanoma = tested on: SK-MEL-28 melanoma
SK-MEL-5 melanoma = tested on: SK-MEL-5 melanoma
SK-OV-3 ovarian = tested on: SK-OV-3 ovarian
SN12C renal = tested on: SN12C renal
SNB-19 CNS = tested on: SNB-19 CNS
SNB-75 CNS = tested on: SNB-75 CNS
SNB-78 CNS = tested on: SNB-78 CNS
SW-620 colon = tested on: SW-620 colon
TK-10 renal = tested on: TK-10 renal
U251 CNS = tested on: U251 CNS
UACC-257 melanoma = tested on: UACC-257 melanoma
UACC-62 melanoma = tested on: UACC-62 melanoma
UO-31 renal = tested on: UO-31 renal
XF 498 CNS = tested on: XF 498 CNS

Q: How did the TGI (786-0 renal) turn out when `N#C/C(=C\c1cccc(O)c1)C(N)=O` was run?
A: > 100 µM

Q: What about the TGI (A498 renal) of the same molecule?
A: > 100 µM

Q: What about the TGI (A549 NSCLC) of the same molecule?
A: > 100 µM

Q: And the TGI (ACHN renal)?
A: > 100 µM

Q: What about the TGI (CAKI-1 renal) of the same molecule?
A: > 100 µM

Q: What about the TGI (CCRF-CEM leukemia) of the same molecule?
A: > 100 µM

Q: And the TGI (COLO 205 colon)?
A: > 100 µM

Q: And the TGI (DLD-1 colon)?
A: > 100 µM

Q: And the TGI (DMS 114 small cell lung)?
A: > 100 µM

Q: And the TGI (DMS 273 small cell lung)?
A: > 100 µM

Q: What about the TGI (EKVX NSCLC) of the same molecule?
A: > 100 µM

Q: What about the TGI (HCC-2998 colon) of the same molecule?
A: > 100 µM

Q: What about the TGI (HCT-116 colon) of the same molecule?
A: > 100 µM

Q: What about the TGI (HCT-15 colon) of the same molecule?
A: > 100 µM

Q: What about the TGI (HL-60(TB) leukemia) of the same molecule?
A: 43.5 µM

Q: What about the TGI (HOP-62 NSCLC) of the same molecule?
A: > 100 µM

Q: And the TGI (HOP-92 NSCLC)?
A: > 100 µM

Q: And the TGI (HT29 colon)?
A: > 100 µM

Q: And the TGI (IGROV1 ovarian)?
A: > 100 µM

Q: What about the TGI (K-562 leukemia) of the same molecule?
A: > 100 µM

Q: What about the TGI (KM12 colon) of the same molecule?
A: > 100 µM

Q: And the TGI (KM20L2 colon)?
A: > 100 µM

Q: What about the TGI (LOX IMVI melanoma) of the same molecule?
A: > 100 µM

Q: What about the TGI (LXFL 529 NSCLC) of the same molecule?
A: > 100 µM

Q: And the TGI (M14 melanoma)?
A: > 100 µM

Q: What about the TGI (M19-MEL melanoma) of the same molecule?
A: > 100 µM

Q: And the TGI (MALME-3M melanoma)?
A: > 100 µM

Q: And the TGI (MOLT-4 leukemia)?
A: > 100 µM

Q: What about the TGI (NCI-H226 lung) of the same molecule?
A: > 100 µM

Q: What about the TGI (NCI-H23 lung) of the same molecule?
A: > 100 µM

Q: What about the TGI (NCI-H460 lung) of the same molecule?
A: > 100 µM

Q: And the TGI (NCI-H522 lung)?
A: > 100 µM

Q: And the TGI (OVCAR-3 ovarian)?
A: > 100 µM

Q: And the TGI (OVCAR-4 ovarian)?
A: > 100 µM

Q: What about the TGI (OVCAR-5 ovarian) of the same molecule?
A: > 100 µM

Q: What about the TGI (OVCAR-8 ovarian) of the same molecule?
A: > 100 µM

Q: And the TGI (RPMI-8226 leukemia)?
A: > 100 µM

Q: And the TGI (RXF 393 renal)?
A: > 100 µM

Q: What about the TGI (RXF-631 renal) of the same molecule?
A: > 100 µM

Q: And the TGI (SF-268 CNS)?
A: > 100 µM

Q: What about the TGI (SF-295 CNS) of the same molecule?
A: > 100 µM

Q: And the TGI (SF-539 CNS)?
A: > 100 µM

Q: What about the TGI (SK-MEL-2 melanoma) of the same molecule?
A: > 100 µM

Q: And the TGI (SK-MEL-28 melanoma)?
A: > 100 µM

Q: What about the TGI (SK-MEL-5 melanoma) of the same molecule?
A: > 100 µM

Q: What about the TGI (SK-OV-3 ovarian) of the same molecule?
A: > 100 µM

Q: What about the TGI (SN12C renal) of the same molecule?
A: > 100 µM

Q: And the TGI (SNB-19 CNS)?
A: > 100 µM

Q: What about the TGI (SNB-75 CNS) of the same molecule?
A: 95.4 µM

Q: And the TGI (SNB-78 CNS)?
A: > 100 µM

Q: What about the TGI (SW-620 colon) of the same molecule?
A: > 100 µM

Q: And the TGI (TK-10 renal)?
A: > 100 µM

Q: And the TGI (U251 CNS)?
A: > 100 µM

Q: And the TGI (UACC-257 melanoma)?
A: > 100 µM

Q: What about the TGI (UACC-62 melanoma) of the same molecule?
A: > 100 µM

Q: What about the TGI (UO-31 renal) of the same molecule?
A: > 100 µM

Q: And the TGI (XF 498 CNS)?
A: > 100 µM

Q: Which TGI (786-0 renal) does the source give for `O=C1C2=C(c3ccccc31)C(c1ccccc1)NC(=S)N2` (stereo unspecified) here?
A: 85 µM

Q: And the TGI (A498 renal)?
A: > 100 µM

Q: What about the TGI (A549 NSCLC) of the same molecule?
A: > 100 µM

Q: What about the TGI (ACHN renal) of the same molecule?
A: > 100 µM

Q: What about the TGI (CAKI-1 renal) of the same molecule?
A: > 100 µM

Q: And the TGI (CCRF-CEM leukemia)?
A: > 100 µM

Q: What about the TGI (COLO 205 colon) of the same molecule?
A: > 100 µM

Q: And the TGI (DLD-1 colon)?
A: > 100 µM

Q: And the TGI (DMS 114 small cell lung)?
A: > 100 µM

Q: And the TGI (DMS 273 small cell lung)?
A: > 100 µM

Q: What about the TGI (EKVX NSCLC) of the same molecule?
A: > 100 µM

Q: And the TGI (HCC-2998 colon)?
A: > 100 µM

Q: And the TGI (HCT-116 colon)?
A: > 100 µM

Q: What about the TGI (HCT-15 colon) of the same molecule?
A: > 100 µM

Q: And the TGI (HL-60(TB) leukemia)?
A: 39.6 µM

Q: And the TGI (HOP-62 NSCLC)?
A: > 100 µM

Q: What about the TGI (HOP-92 NSCLC) of the same molecule?
A: 97.1 µM

Q: What about the TGI (HT29 colon) of the same molecule?
A: > 100 µM

Q: What about the TGI (IGROV1 ovarian) of the same molecule?
A: > 100 µM

Q: And the TGI (K-562 leukemia)?
A: 67.4 µM

Q: What about the TGI (KM12 colon) of the same molecule?
A: > 100 µM

Q: What about the TGI (KM20L2 colon) of the same molecule?
A: > 100 µM

Q: And the TGI (LXFL 529 NSCLC)?
A: > 100 µM

Q: And the TGI (M14 melanoma)?
A: > 100 µM

Q: And the TGI (M19-MEL melanoma)?
A: > 100 µM

Q: What about the TGI (MALME-3M melanoma) of the same molecule?
A: > 100 µM

Q: What about the TGI (MOLT-4 leukemia) of the same molecule?
A: > 100 µM

Q: What about the TGI (NCI-H226 lung) of the same molecule?
A: > 100 µM

Q: And the TGI (NCI-H23 lung)?
A: > 100 µM

Q: What about the TGI (NCI-H460 lung) of the same molecule?
A: > 100 µM

Q: And the TGI (NCI-H522 lung)?
A: > 100 µM

Q: What about the TGI (OVCAR-3 ovarian) of the same molecule?
A: > 100 µM

Q: And the TGI (OVCAR-4 ovarian)?
A: > 100 µM

Q: What about the TGI (OVCAR-5 ovarian) of the same molecule?
A: > 100 µM

Q: And the TGI (OVCAR-8 ovarian)?
A: > 100 µM

Q: What about the TGI (RPMI-8226 leukemia) of the same molecule?
A: > 100 µM

Q: And the TGI (RXF-631 renal)?
A: > 100 µM

Q: And the TGI (SF-268 CNS)?
A: > 100 µM

Q: And the TGI (SF-295 CNS)?
A: > 100 µM

Q: What about the TGI (SF-539 CNS) of the same molecule?
A: 46.3 µM

Q: What about the TGI (SK-MEL-2 melanoma) of the same molecule?
A: > 100 µM

Q: What about the TGI (SK-MEL-28 melanoma) of the same molecule?
A: > 100 µM

Q: And the TGI (SK-MEL-5 melanoma)?
A: > 100 µM

Q: And the TGI (SK-OV-3 ovarian)?
A: > 100 µM

Q: What about the TGI (SN12C renal) of the same molecule?
A: > 100 µM

Q: And the TGI (SNB-19 CNS)?
A: > 100 µM

Q: And the TGI (SNB-75 CNS)?
A: 80 µM

Q: And the TGI (SW-620 colon)?
A: > 100 µM

Q: What about the TGI (TK-10 renal) of the same molecule?
A: > 100 µM

Q: What about the TGI (U251 CNS) of the same molecule?
A: > 100 µM

Q: What about the TGI (UACC-257 melanoma) of the same molecule?
A: > 100 µM

Q: And the TGI (UACC-62 melanoma)?
A: > 100 µM

Q: And the TGI (UO-31 renal)?
A: > 100 µM

Q: What about the TGI (XF 498 CNS) of the same molecule?
A: > 100 µM
